Legend:
[1] = Acid dissociation constant of compound was determined (for carboxylic acid group); format: ADME
[2] = Acid dissociation constant of compound was determined (for pyrrolinium group); format: ADME

pKa [1]: 1.8 | pKa [2]: 6.2
SMILES: O=C(O)C1=NCCC1

Reference: ChEMBL document CHEMBL1151582, “The effect of pH on the solution structure of 1-pyrroline-2-carboxylic acid as revealed by NMR and electrospray mass spectroscopy” (Bioorg Med Chem Lett, 1993)
